Data published in PMC3601546 (Bioorganic & medicinal chemistry letters, 2012).

Target: T1, human NPBWR1 (Homo sapiens, UniProt P48145)
T1 sequence (P48145 1-328): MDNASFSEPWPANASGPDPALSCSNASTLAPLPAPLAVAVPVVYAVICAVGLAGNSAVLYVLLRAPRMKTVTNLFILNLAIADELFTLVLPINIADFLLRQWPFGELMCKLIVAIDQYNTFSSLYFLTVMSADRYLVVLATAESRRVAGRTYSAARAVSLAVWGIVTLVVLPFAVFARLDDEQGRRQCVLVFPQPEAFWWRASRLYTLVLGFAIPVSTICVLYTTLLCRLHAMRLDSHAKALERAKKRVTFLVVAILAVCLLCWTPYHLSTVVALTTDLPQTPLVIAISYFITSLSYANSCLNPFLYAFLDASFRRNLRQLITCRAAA
Assay: NPBWR1 antagonist calcium release
Type: cell-based
Details: not given

NPBWR1 antagonist activity in words | SMILES
Total loss of potency | COc1ccc(Oc2c(NC(C)=O)cnn(-c3ccc(C(C)C)cc3)c2=O)cc1 [9q]
inactive | COc1ccc(Oc2c(C(=O)O)cnn(-c3ccc(C(C)C)cc3)c2=O)cc1 [9m]
drastic loss in potency | COc1ccc(Oc2c(-c3ccccc3)cnn(-c3ccc(C)cc3)c2=O)cc1 [9d]
Total loss of activity | COc1ccc(Oc2c(Cl)c(C(=O)O)nn(-c3ccc(C(C)C)cc3)c2=O)cc1 [9t]
Total loss of potency | COc1ccc(Oc2c(N)cnn(-c3ccc(C(C)C)cc3)c2=O)cc1 [9p]
Total loss of potency | COc1ccc(Oc2ccnn(-c3ccc(C(C)C)cc3)c2=O)cc1 [9o]

Same assay, conditions: ratio of NPBWR1 IC50 vs 1a

fold more potent than the hit 1a | SMILES
2- to 3 fold | Cc1ccc(-n2ncc(Cl)c(Oc3ccc(C(F)(F)F)cc3)c2=O)cc1 [6e]
~ fourfold | COc1ccc(Oc2c(Cl)cnn(-c3ccc(C)c(C)c3)c2=O)cc1 [1s]

Same assay, conditions: ratio of NPBWR1 IC50 vs 1j

fold less potent than 1j | SMILES
~ 28 fold | COc1ccc(Oc2c(C)cnn(-c3ccc(C(C)C)cc3)c2=O)cc1 [9g]
13 fold | COC(=O)c1nn(-c2ccc(C(C)C)cc2)c(=O)c(Oc2ccc(OC)cc2)c1Cl [9u]
~9 fold | C=Cc1cnn(-c2ccc(C(C)C)cc2)c(=O)c1Oc1ccc(OC)cc1 [9h]
~ 21 fold | COc1ccc(Oc2c(CO)cnn(-c3ccc(C(C)C)cc3)c2=O)cc1 [9k]
~ 23 fold | COc1ccc(Oc2c(C=O)cnn(-c3ccc(C(C)C)cc3)c2=O)cc1 [9j]
eightfold | CC(C)c1ccc(-n2ncc(Cl)c(Oc3ccc(C(=O)CN)cc3)c2=O)cc1 [6l]
~45 fold | CC(C)c1ccc(-n2ncc(Cl)c(Oc3ccc(OC(F)(F)F)cc3)c2=O)cc1 [6j]
~ 15 fold | COc1ccc(Oc2c(C#N)cnn(-c3ccc(C(C)C)cc3)c2=O)cc1 [9l]
~ 18 fold | CC(C)c1ccc(-n2ncc(Cl)c(Oc3ccc(O)cc3)c2=O)cc1 [6i]
13 fold | CCOC(=O)c1nn(-c2ccc(C(C)C)cc2)c(=O)c(Oc2ccc(OC)cc2)c1Cl [9s]
10 fold | COC(=O)c1cnn(-c2ccc(C(C)C)cc2)c(=O)c1Oc1ccc(OC)cc1 [9n]

Same assay, conditions: ratio of NPBWR1 IC50 vs 1t

fold decrease in potency compared to 1t | SMILES
~ 3.5 fold | COc1ccc(Oc2c(Cl)c(OC)nn(-c3cccc(C)c3)c2=O)cc1 [9r]

Same assay, conditions: ratio of NPBWR1 IC50 vs 9a

fold loss in potency compared to 9a | SMILES
~ eightfold | COc1ccc(Oc2c(C3CC3)cnn(-c3ccc(C)cc3)c2=O)cc1 [9f]

Test system: Ricerca panel of 35 therapeutically relevant off-target proteins including GPCRs, enzymes and ion channels
Assay: Selectivity profile against Ricerca panel of 35 off-target proteins
Details: at 10 μM

stimulation/inhibition against the pool of tested off-targets [%] | SMILES
< 50 | COc1ccc(Oc2c(Cl)cnn(-c3cc(C)cc(C)c3)c2=O)cc1 [1z, 5-chloro-2-(3,5-dimethylphenyl)-4-(4-methoxyphenoxy)pyridazin-3(2H)-one]

Test system: HT29 cells
Assay: Viability assay on HT29 cells
Type: cell-based
Details: final tested concentration of 20 μM

SMILES | cytotoxicity in viability assay
COc1ccc(Oc2c(Cl)cnn(-c3cc(C)cc(C)c3)c2=O)cc1 [1z, 5-chloro-2-(3,5-dimethylphenyl)-4-(4-methoxyphenoxy)pyridazin-3(2H)-one] | non cytotoxic
